Biological target: T1, human RORgT (Homo sapiens, UniProt P51449)
T1 construct: expressed in transfected cells
T1 sequence (P51449 267-516): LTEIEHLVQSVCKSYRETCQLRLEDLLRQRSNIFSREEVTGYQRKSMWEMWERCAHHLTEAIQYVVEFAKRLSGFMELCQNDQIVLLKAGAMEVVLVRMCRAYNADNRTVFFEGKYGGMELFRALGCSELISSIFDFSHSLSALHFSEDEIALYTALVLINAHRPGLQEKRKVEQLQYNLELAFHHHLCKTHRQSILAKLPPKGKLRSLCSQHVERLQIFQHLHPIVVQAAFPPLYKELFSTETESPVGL
Experiment: RORgT Gal4 Luciferase Reporter Gene Assay
Type: cell-based
Details: engineered Jurkat cells overexpressing RORgT (LBD or full length) fused with Gal4 Luc reporter; 18 hours at 37° C.; luminescence
Outline: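 Jurkat cells expressing Gal4 Luc with either RORgT LBD (aa267-516) or full-length human RORgT, 10,000 cells/well, treated with compound (40 µM to 0.67 nM final, 3-fold dilutions) for 18 h at 37° C. Steady-Glo luminescence read; inhibition of constitutive activity as % signal-window reduction relative to a control compound.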

Compound | EC50 [nM]
CS(=O)(=O)N1CCC(C(=O)N2CC[C@@]3(S(=O)(=O)c4ccc(F)cc4)c4ccc(OCc5c(Cl)cccc5Cl)cc4CC[C@@H]23)CC1 [Example 190, 4-[(3aR,9bR)-7-[(2,6-dichlorophenyl)methoxy]-9b-(4-fluorobenzenesulfonyl)-1H,2H,3H,3aH,4H,5H,9bH-benzo[e]indole-3-carbonyl]-1-methanesulfonylpiperidine] | 8.7
CS(=O)(=O)CC(=O)N1CC[C@@]2(S(=O)(=O)c3ccc(F)cc3)c3ccc(OCc4c(Cl)cccc4Cl)cc3CC[C@@H]12 [Example 191, 1-[(3 aR,9bR)-7-[(2,6-dichlorophenyl)methoxy] -9b-(4-fluorobenzenesulfonyl)-1H,2H,3H,3aH,4H,5H,9bH-benzo[e]indol-3-yl]-2-methanesulfonylethan-1-one] | 134
O=C(O)[C@H]1CC[C@H](C(=O)N2CC[C@@]3(S(=O)(=O)c4ccc(F)cc4)c4ccc(OCc5ccc(F)cc5Cl)cc4CC[C@@H]23)CC1 [Example 193, (1r,4r)-4-[(3aR,9bR)-7-[(2-chloro-4-fluorophenyl)methoxy]-9b-(4-fluorobenzenesulfonyl)-1H,2H,3H,3aH,4H,5H,9bH-benzo[e]indole-3-carbonyl]cyclohexane-1-carboxylic acid] | 46
NS(=O)(=O)CC(=O)N1CC[C@@]2(S(=O)(=O)c3ccc(F)cc3)c3ccc(OCc4cc(F)ccc4Cl)cc3CC[C@@H]12 [Example 194, 2-[(3aR,9bR)-7-[(2-chloro-5-fluorophenyl)methoxy]-9b-(4-fluorobenzenesulfonyl)-1H,2H,3H,3aH,4H,5H,9bH-benzo[e]indol-3-yl]-2-oxoethane-1-sulfonamide] | 189
CS(=O)(=O)CC(=O)N1CC[C@@]2(S(=O)(=O)c3ccc(F)cc3)c3ccc(OCc4cc(F)ccc4Cl)cc3CC[C@@H]12 [Example 195, 1-[(3 aR,9bR)-7-[(2-chloro-5-fluorophenyl)methoxy]-9b-(4-fluorobenzenesulfonyl)-1H,2H,3H,3aH,4H,5H,9bH-benzo[e]indol-3-yl]-2-methanesulfonylethan-1-one] | 158
CC(=O)N1CCC(C(=O)N2CC[C@@]3(S(=O)(=O)c4ccc(F)cc4)c4ccc(OCc5cc(Cl)ccc5Cl)cc4CC[C@@H]23)CC1 [Example 196, 1-{4-[(3aR,9bR)-7-[(2,5-dichlorophenyl)methoxy] -9b-(4-fluorobenzenesulfonyl)-1H,2H,3H,3aH,4H,5H,9bH-benzo[e]indole-3-carbonyl]piperidin-1-yl}ethan-1-one] | 37
O=C(CN1CCS(=O)(=O)CC1)N1CC[C@@]2(S(=O)(=O)c3ccc(F)cc3)c3ccc(OCc4cc(Cl)ccc4Cl)cc3CC[C@@H]12 [Example 197, 4-{2-[(3aR,9bR)-7-[(2,5-dichlorophenyl)methoxy] -9b-(4-fluorobenzenesulfonyl)-1H,2H,3H,3aH,4H,5H,9bH-benzo[e]indol-3-yl]-2-oxoethyl}-1λ^6-thiomorpholine-1,1-dione] | 49
NC(=O)N1CCC(C(=O)N2CC[C@@]3(S(=O)(=O)c4ccc(F)cc4)c4ccc(OCc5ccc(F)cc5Cl)cc4CC[C@@H]23)CC1 [Example 198, 4-[(3aR,9bR)-7-[(2-chloro-4-fluorophenyl)methoxy]-9b-(4-fluorobenzenesulfonyl)-1H,2H,3H,3aH,4H,5H,9bH-benzo[e]indole-3-carbonyl] piperidine-1-carboxamide] | 19
O=C(C1CCS(=O)(=O)C1)N1CC[C@@]2(S(=O)(=O)c3ccc(F)cc3)c3ccc(OCc4cc(Cl)ccc4Cl)cc3CC[C@@H]12 (stereo partly drawn) [Example 199, 3-[(3aR,9bR)-7-[(2,5-dichlorophenyl)methoxy]-9b-(4-fluorobenzenesulfonyl)-1H,2H,3H,3aH,4H,5H,9bH-benzo[e]indole-3-carbonyl]-1λ^6-thiolane-1,1-dione] | 8.7
O=C(C1CCS(=O)(=O)CC1)N1CC[C@@]2(S(=O)(=O)c3ccc(F)cc3)c3ccc(OCc4cc(Cl)ccc4Cl)cc3CC[C@@H]12 [Example 200, 4-[(3aR,9bR)-7-[(2,5-dichlorophenyl)methoxy]-9b-(4-fluorobenzenesulfonyl)-1H,2H,3H,3aH,4H,5H,9bH-benzo[e]indole-3-carbonyl]-1λ^6-thiane-1,1-dione] | 7.5
O=C(C1CCS(=O)(=O)C1)N1CC[C@@]2(S(=O)(=O)c3ccc(F)cc3)c3ccc(OCc4ccc(F)cc4Cl)cc3CC[C@@H]12 (stereo partly drawn) [Example 201, 3-[(3aR,9bR)-7-[(2-chloro-4-fluorophenyl)methoxy]-9b-(4-fluorobenzenesulfonyl)-1H,2H,3H,3aH,4H,5H,9bH-benzo[e]indole-3-carbonyl]-1λ^6-thiolane-1,1-dione] | 40
NC(=O)N1CCC(C(=O)N2CC[C@@]3(S(=O)(=O)c4ccc(F)cc4)c4ccc(OCc5cc(Cl)ccc5Cl)cc4CC[C@@H]23)CC1 [Example 202, 4-[(3aR,9bR)-7-[(2,5-dichlorophenyl)methoxy]-9b-(4-fluorobenzenesulfonyl)-1H,2H,3H,3aH,4H,5H,9bH-benzo[e]indole-3-carbony1]piperidine-1-carboxamide] | 15
COC(=O)[C@H]1CC[C@H](C(=O)N2CC[C@@]3(S(=O)(=O)c4ccc(F)cc4)c4ccc(OCc5cc(Cl)ccc5Cl)cc4CC[C@@H]23)CC1 [Example 203, methyl (1r,4r)-4-[(3aR,9bR)-7-[(2,5-dichlorophenyl)methoxy] -9b-(4-fluorobenzenesulfonyl)-1H,2H,3H,3aH,4H,5H,9bH-benzo[e]indole-3-carbonyl] cyclohexane-1-carboxylate] | 111
CN1CCC(C(=O)N2CC[C@@]3(S(=O)(=O)c4ccc(F)cc4)c4ccc(OCc5cc(Cl)ccc5Cl)cc4CC[C@@H]23)CC1 [Example 204, 4-[(3aR,9bR)-7-[(2,5-dichlorophenyl)methoxy]-9b-(4-fluorobenzenesulfonyl)-1H,2H,3H,3aH,4H,5H,9bH-benzo[e]indole-3-carbonyl]-1-methylpiperidine] | 76
O=C(O)[C@H]1CC[C@H](C(=O)N2CC[C@@]3(S(=O)(=O)c4ccc(F)cc4)c4ccc(OCc5cc(Cl)ccc5Cl)cc4CC[C@@H]23)CC1 [Example 205, (1r,4r)-4-[(3aR,9bR)-7-[(2,5-dichlorophenyl)methoxy] -9b-(4-fluorobenzenesulfonyl)-1H,2H,3H,3aH,4H,5H,9bH-benzo[e]indole-3-carbonyl]cyclohexane-1-carboxylic acid] | 9.5
CN1CCC(C(=O)N2CC[C@@]3(S(=O)(=O)c4ccc(F)cc4)c4ccc(OCc5ccc(F)cc5Cl)cc4CC[C@@H]23)CC1 [Example 206, 4-[(3aR,9bR)-7-[(2-chloro-4-fluorophenyl)methoxy]-9b-(4-fluorobenzenesulfonyl)-1H,2H,3H,3aH,4H,5H,9bH-benzo[e]indole-3-carbonyl]-1-methylpiperidine] | 216
CC(=O)N1CCC(C(=O)N2CC[C@@]3(S(=O)(=O)c4ccc(F)cc4)c4ccc(OCc5ccc(F)cc5Cl)cc4CC[C@@H]23)CC1 [Example 207, 1-{4-[(3aR,9bR)-7-[(2-chloro-4-fluorophenyl)methoxy]-9b-(4-fluorobenzenesulfonyl)-1H,2H,3H,3aH,4H,5H,9bH-benzo[e]indole-3-carbonyl]piperidin-1-yl}ethan-1-one] | 28
CS(=O)(=O)CC(=O)N1CC[C@@]2(S(=O)(=O)c3ccc(F)cc3)c3ccc(OCc4cc(Cl)ccc4Cl)cc3CC[C@@H]12 [Example 208, 1-[(3 aR,9bR)-7-[(2,5-dichlorophenyl)methoxy] -9b-(4-fluorobenzenesulfonyl)-1H,2H,3H,3aH,4H,5H,9bH-benzo[e]indol-3-yl]-2-methanesulfonylethan-1-one] | 162

Reference: patent publication US20230295087A1, “AGONISTS OF ROR GAMMAt” (BRISTOL-MYERS SQUIBB COMPANY, priority 2019, published 2023)
